Assay: Surface tensiometer characterization: critical micelle concentration and surface tension
Format: physicochemical
Conditions: surface tensiometer; FIG. 2
From the text: Dibenzhydryl resorcinol ethoxylates produced in Example 2 were characterized using a surface tensiometer to determine critical micelle concentration and surface tension.

Substance Dibenzhydryl Resorcinol Ethoxylate has a critical micelle concentration of 4 ppm.
